“Also recorded” adds a separate entry of the source.
What was measured:
[1] = system: subjects having Fitzpatrick Skin Types I-IV; details: split-face: Retinoic Acid 0.3% right side vs Retinol 2% left side; 7-day; FIG. 1
[2] = system: subjects with mild to moderate photodamage; test: Study 3: Retinol 3% (oil-free) vs. RA 0.3%, split-face single-blind clinical study, series of three peel procedures
[3] = FIG. 8, post-peel #3, blinded photograph evaluation by an expert physician

stinging/burning and tightness (investigator and subject assessments) [1]	Compound	subjects preferred treated side, post-peel #1 subject assessment ([2]; FIG. 5)	subjects preferred treated side, post-peel #2 subject assessment ([2]; FIG. 6)	subjects preferred treated side, post-peel #3 subject assessment ([2]; FIG. 7)	investigator noticed no difference between the sides ([2]; FIG. 4, Retinol 3% (oil-free) vs Retinoic Acid 0.3%)	subjects felt no difference between the sides, post-peel #1 ([2]; FIG. 5, Retinol 3% (oil-free) vs Retinoic Acid 0.3%)	subjects felt no difference between the sides, post-peel #2 ([2]; FIG. 6, Retinol 3% (oil-free) vs Retinoic Acid 0.3%)	subjects felt no difference between the sides, post-peel #3 ([2]; FIG. 7, Retinol 3% (oil-free) vs Retinoic Acid 0.3%)	improvement in fine lines and wrinkles compared to retinoic acid [2, 3]	improvement in photodamage compared to retinoic acid [2, 3]	improvement in unevenness of skin tone compared to retinoic acid [2, 3]	subjects demonstrating a difference favoring the treated side ([2]; end of treatment, one subject)	adverse reaction on treated side ([2]; one subject, treated with topical hydrocortisone for 3 days, resolved, no reaction on re-challenge)
more	CC1=C(/C=C/C(C)=C/C=C/C(C)=C/C(=O)O)C(C)(C)CCC1 [Retinoic Acid]	10 % of subjects	10 % of subjects	0 % of subjects	–	–	–	–	–	–	–	–	–
–	CC1=C(/C=C/C(C)=C/C=C/C(C)=C/CO)C(C)(C)CCC1 [retinol, (2E,4E,6E,8E)-3,7-dimethyl-9-(2,6,6-trimethylcyclohex-1-enyl)nona-2,4,6,8-tetraen-1-ol]	15 % of subjects	5 % of subjects	5 % of subjects	95 % of subjects	75 % of subjects	85 % of subjects	95 % of subjects	about twice as much improvement; also recorded: superior efficacy	about twice as much improvement; also recorded: superior efficacy	about twice as much improvement; also recorded: superior efficacy	5%	irritation (rash, redness)

Source: patent publication US20200276094A1, “COMPOSITIONS FOR SKIN EXPOLIATION AND USE THEREOF” (Allergan, Inc., priority 2011, published 2020)
